From ChEMBL document CHEMBL1201862, “PubChem BioAssay data set” (2004)
Calls of active or inactive are those of the source.

Experiments:
[1] = cells; format: functional, cell-based
[2] = cells; format: functional, cell-based; remark: listed apart in the source
[3] = molecular target: Paired box protein Pax-8 (Homo sapiens, UniProt Q06710); assay: inhibitors of PAX8-driven TPO luciferase reporter, dose response, RMG-I cells, cherry-pick (AID 687027); format: functional, cell-based;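 further: luciferase reporter driven by Pax8 target thyroperoxidase promoter measured by SteadyGlo luminescence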
Paired box protein Pax-8, sequence (Q06710 whole entry): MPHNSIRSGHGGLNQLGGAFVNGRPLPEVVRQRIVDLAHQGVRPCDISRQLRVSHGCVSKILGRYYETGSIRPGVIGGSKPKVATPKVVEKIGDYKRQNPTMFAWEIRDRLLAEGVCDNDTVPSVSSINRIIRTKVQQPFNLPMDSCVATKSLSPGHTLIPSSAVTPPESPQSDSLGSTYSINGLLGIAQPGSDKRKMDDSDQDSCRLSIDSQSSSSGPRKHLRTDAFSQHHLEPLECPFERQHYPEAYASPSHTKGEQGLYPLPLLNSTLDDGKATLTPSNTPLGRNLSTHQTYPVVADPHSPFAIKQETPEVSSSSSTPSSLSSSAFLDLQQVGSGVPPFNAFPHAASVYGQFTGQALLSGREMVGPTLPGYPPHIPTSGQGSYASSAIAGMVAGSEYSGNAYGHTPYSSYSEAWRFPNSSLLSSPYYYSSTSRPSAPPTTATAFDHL

[4] = non-specific cell cytotoxicity, dose response, cytotoxicity control for PAX8 inhibitor project, plate reader, dry powder samples (AID 743021); format: functional, cell-based
[5] = molecular target: T1, Long-chain-fatty-acid--AMP ligase FadD28 (Mycobacterium tuberculosis, UniProt P9WQ59); assay: Fluorescence polarization aasay to screen for inhibitors that compete for the binding of FadD28 to a bisubstrate Measured in Biochemical System Using Plate Reader - 2147-01_Inhibitor_Dose_CherryPick_Activity.; format: functional, Mycobacterium tuberculosis H37Rv
T1 sequence (P9WQ59 whole entry): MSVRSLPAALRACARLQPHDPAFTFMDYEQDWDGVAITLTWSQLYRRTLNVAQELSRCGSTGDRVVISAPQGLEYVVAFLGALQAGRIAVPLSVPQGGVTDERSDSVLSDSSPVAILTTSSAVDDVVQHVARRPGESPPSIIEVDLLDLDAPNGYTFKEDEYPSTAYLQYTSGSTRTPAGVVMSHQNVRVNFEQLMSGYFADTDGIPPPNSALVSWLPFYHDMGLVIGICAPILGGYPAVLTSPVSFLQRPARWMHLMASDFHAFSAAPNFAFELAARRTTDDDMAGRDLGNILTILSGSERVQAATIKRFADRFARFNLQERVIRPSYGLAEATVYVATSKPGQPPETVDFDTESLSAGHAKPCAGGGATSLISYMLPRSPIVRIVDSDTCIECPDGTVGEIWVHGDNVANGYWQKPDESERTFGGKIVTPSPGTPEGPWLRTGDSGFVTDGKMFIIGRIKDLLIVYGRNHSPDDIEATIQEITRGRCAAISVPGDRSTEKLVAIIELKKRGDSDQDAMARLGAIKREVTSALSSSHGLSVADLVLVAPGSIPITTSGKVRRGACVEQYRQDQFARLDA

[6] = test system: Escherichia coli; assay: microbe, parasite or virus in culture
[7] = inhibitors of firefly luciferase expression or activity, dose response, H4 neuroglioma cells, luminescence (AID 1990); format: functional, cell-based
[8] = inhibitors of SNCA 5'UTR-driven reporter translation, confirmation, H4 neuroglioma cells, luminescence (AID 1988); format: functional, cell-based
[9] = test system: BJ; assay: cytotoxicity toward BJ-TERT-LT-ST fibroblasts, dose response, cell-based, RAS-independent, luminescence (AID 1935); format: functional; settings: Homo sapiens;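 further: BJ fibroblasts immortalized with TERT plus LT and ST oncogenes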
[10] = test system: BJ; assay: cytotoxicity toward BJ-TERT fibroblasts, dose response, cell-based, RAS-independent, luminescence (AID 1933); format: functional; settings: Homo sapiens
[11] = molecular target: T2, Replicative DNA helicase DnaB (Mycobacterium tuberculosis, UniProt P9WMR3); assay: DnaB intein splicing inhibitors, dose response, biochemical, cell-free fluorescence (AID 449749); format: functional
T2 sequence (P9WMR3 whole entry): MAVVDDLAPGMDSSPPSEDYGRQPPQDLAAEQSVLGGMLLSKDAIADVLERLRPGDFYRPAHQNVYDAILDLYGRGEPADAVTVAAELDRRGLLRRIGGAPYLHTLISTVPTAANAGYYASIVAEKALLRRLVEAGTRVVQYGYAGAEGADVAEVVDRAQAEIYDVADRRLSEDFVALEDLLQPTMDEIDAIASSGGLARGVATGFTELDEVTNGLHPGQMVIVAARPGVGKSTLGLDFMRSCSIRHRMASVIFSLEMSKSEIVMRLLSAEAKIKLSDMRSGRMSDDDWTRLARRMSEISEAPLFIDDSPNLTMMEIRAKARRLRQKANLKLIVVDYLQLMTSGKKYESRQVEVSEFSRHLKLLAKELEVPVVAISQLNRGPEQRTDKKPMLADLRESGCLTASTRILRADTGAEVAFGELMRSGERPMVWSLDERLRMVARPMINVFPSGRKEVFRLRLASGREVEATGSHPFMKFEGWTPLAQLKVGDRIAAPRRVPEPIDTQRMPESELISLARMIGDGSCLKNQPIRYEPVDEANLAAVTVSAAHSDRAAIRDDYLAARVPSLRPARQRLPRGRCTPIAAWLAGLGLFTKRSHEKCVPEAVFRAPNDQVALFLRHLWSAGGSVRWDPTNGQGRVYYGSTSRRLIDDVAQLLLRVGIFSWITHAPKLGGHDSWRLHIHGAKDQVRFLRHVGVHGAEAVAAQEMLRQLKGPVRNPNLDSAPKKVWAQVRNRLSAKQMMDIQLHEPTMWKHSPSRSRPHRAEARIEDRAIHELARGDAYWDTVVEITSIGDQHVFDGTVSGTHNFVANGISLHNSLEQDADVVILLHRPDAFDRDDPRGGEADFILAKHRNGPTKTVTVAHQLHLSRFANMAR

[12] = test system: BJ; assay: cells; format: functional, cell-based; settings: Homo sapiens
[13] = cytotoxicity toward DRD oncogenic fibroblasts, dose response, cell-based, non-viral oncogenic, luminescence (AID 1934); format: functional; settings: Homo sapiens
[14] = molecular target: T3, COUP transcription factor 2 (Homo sapiens, UniProt P24468); assay: Luminescence-based cell-based high throughput dose response assay to identify inhibitors of COUP-TFII (NR2F2).; format: functional;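 further: HEK293 cells transiently cotransfected with COUP-TFII expression vector and reporter; luciferase reporter luminescence driven by COUP-TFII from the pX2-168 reporter plasmid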
T3 sequence (P24468 whole entry): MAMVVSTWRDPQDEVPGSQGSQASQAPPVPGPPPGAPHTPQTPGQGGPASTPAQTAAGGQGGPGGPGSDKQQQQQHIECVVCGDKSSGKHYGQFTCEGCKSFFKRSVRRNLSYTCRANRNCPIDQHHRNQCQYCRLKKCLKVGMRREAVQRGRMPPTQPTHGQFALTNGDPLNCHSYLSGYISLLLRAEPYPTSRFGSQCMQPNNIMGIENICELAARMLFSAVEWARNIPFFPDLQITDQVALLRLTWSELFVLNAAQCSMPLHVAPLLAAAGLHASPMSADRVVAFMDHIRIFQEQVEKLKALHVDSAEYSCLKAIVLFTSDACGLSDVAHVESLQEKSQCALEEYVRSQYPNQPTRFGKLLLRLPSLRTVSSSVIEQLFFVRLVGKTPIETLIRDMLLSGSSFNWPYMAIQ

[15] = molecular target: T4, Protein RecA (Mycobacterium tuberculosis, UniProt P9WHJ3); assay: Fluorescence Cell-Free Homogeneous Dose Retest to Identify Inhibitors of RecA-Intein Splicing Activity. [Related pubchem assays (depositor defined):AID2097, AID2223, AID489010, AID492950]; format: functional
T4 sequence (P9WHJ3 whole entry): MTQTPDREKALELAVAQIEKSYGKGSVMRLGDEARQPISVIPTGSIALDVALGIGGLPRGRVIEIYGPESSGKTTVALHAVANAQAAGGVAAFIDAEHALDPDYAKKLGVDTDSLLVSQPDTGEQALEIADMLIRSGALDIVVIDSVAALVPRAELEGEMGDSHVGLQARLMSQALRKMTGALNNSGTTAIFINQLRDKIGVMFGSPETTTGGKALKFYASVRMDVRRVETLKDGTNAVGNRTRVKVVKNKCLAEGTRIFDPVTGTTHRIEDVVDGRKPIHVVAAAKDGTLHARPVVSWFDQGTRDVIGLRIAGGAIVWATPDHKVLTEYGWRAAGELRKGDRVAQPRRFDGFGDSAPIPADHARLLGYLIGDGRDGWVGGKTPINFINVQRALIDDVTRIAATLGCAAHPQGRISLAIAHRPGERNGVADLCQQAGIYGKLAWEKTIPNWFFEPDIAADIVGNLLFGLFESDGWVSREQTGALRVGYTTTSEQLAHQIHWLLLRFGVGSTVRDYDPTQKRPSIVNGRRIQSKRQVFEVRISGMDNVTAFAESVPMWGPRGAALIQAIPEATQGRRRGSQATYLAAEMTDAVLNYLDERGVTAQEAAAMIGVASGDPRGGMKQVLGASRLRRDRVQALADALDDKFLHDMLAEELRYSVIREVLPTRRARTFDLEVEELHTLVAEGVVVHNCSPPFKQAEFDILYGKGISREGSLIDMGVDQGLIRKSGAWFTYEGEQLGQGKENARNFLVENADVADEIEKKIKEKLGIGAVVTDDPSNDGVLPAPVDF

[16] = test system: INS1; assay: beta cell apoptosis inhibitors, cytokine rescue, dose response, luminescence, retest (AID 449756); format: functional, cell-based; settings: Rattus norvegicus;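 further: cell death triggered by IL-1 beta plus TNF-alpha plus IFN-gamma mixture; protective hits raise ATP signal compared with cytokine alone wells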
[17] = Luminescence Cell-Based Dose Response HTS to Identify Inhibitors of 5'UTR Stem-Loop Driven Prion Protein mRNA Translation in H4 Neuroglioblastoma Cells. [Related pubchem assays: 1827 (Project Summary), 1813 (Primary HTS)]; format: functional
[18] = molecular target: Ras and Rab interactor 1/Tyrosine-protein kinase ABL1 (Homo sapiens, UniProt P00519+Q13671); format: functional;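 further: biochemical TR-FRET dose-response test measuring inhibition of binding between Rin1 and Abl proteins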
Ras and Rab interactor 1/Tyrosine-protein kinase ABL1, sequence (P00519 whole entry): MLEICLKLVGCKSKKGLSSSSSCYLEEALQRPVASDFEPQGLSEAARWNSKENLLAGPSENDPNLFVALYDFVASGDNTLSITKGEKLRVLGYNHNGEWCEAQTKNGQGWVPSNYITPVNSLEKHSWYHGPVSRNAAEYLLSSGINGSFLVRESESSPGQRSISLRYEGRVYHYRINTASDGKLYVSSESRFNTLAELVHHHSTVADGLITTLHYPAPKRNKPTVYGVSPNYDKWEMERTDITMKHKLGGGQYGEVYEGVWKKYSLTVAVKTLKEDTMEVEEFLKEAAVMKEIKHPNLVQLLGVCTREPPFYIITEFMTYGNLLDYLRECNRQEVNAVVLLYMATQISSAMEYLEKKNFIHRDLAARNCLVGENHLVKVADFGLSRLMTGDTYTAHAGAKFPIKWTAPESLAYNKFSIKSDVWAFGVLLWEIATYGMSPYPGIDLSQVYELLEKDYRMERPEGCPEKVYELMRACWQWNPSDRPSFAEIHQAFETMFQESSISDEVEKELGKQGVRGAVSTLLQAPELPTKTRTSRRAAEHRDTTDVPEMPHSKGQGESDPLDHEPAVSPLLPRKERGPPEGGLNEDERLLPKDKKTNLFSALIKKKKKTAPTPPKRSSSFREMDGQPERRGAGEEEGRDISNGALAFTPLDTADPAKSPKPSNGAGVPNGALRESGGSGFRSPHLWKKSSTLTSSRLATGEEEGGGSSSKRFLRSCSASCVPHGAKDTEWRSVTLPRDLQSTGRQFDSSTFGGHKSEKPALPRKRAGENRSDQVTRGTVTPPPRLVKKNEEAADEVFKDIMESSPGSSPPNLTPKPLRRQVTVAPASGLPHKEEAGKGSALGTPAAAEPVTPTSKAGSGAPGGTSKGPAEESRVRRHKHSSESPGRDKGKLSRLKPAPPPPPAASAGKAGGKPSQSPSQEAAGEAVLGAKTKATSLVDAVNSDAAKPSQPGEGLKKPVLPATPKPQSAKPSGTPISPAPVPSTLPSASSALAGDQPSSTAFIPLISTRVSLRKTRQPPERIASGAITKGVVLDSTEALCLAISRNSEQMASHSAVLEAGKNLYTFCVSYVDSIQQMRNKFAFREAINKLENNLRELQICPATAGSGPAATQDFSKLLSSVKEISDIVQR
Ras and Rab interactor 1/Tyrosine-protein kinase ABL1, sequence (Q13671 whole entry): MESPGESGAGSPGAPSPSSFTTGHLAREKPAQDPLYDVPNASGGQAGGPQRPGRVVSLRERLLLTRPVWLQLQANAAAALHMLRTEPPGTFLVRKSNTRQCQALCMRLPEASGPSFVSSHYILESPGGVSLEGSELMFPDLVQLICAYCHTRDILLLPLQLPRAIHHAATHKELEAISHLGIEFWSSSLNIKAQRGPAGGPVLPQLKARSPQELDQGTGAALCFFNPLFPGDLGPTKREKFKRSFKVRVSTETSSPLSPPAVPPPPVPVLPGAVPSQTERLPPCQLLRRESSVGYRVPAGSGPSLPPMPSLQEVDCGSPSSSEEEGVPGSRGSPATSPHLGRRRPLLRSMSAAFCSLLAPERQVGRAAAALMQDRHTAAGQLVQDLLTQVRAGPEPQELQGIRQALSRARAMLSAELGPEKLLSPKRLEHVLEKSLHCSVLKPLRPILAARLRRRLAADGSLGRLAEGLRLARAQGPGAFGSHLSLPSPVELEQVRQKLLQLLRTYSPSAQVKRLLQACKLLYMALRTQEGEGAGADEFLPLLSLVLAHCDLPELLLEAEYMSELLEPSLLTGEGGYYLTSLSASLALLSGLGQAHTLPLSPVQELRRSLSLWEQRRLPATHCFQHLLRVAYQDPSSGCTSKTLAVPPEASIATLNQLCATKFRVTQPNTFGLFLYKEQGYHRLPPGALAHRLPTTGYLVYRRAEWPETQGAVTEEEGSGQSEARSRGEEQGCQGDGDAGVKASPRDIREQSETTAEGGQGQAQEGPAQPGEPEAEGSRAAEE

[19] = cells; format: functional, cell-based; remark: listed apart in the source
[20] = cells; format: functional, cell-based; remark: listed apart in the source
[21] = test system: SN12K1; assay: cells; format: functional; settings: Homo sapiens
[22] = test system: P388; assay: cells; format: functional; settings: Mus musculus
[23] = test system: P388/ADR; assay: cells; format: functional; settings: Mus musculus
[24] = molecular target: Eukaryotic translation initiation factor 4E (Mus musculus, UniProt P63073); assay: eIF4E–eIF4G protein interaction inhibitors, dose response, biochemical, TR-FRET (AID 855); format: functional;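 further: potency for disrupting eIF4E binding to eIF4GI seen as loss of FRET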
Eukaryotic translation initiation factor 4E, sequence (P63073 whole entry): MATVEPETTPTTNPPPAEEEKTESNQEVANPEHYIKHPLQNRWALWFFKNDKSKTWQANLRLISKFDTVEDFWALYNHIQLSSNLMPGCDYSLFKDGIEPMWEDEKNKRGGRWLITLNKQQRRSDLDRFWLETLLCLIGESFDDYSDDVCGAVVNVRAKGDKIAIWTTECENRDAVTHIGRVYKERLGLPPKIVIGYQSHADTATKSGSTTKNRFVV

NCc1c(O)ccc2ccccc12
IC50 [1]: > 29.9 µM (inactive) | EC50 [2]: > 29.9 µM (inactive)

COc1ccc(OC)c(N(CCN2C(=O)c3ccccc3C2=O)C(=O)CCl)c1
AC50 [3]: 0.966 µM (active) | AC50 [4]: 2.34 µM (active)

O=c1cc(Nc2ccc3c(c2)OCCO3)[nH]c(=O)n1C1CCCCC1
AC50 [5]: 61.1 µM (active)

CS(=O)(=O)c1ccc(Cl)c(NC(=O)COC(=O)CCc2c[nH]c3ccccc23)c1
AC50 [6]: 31.5 µM (active)

N#CC(C#N)=C(Nc1ccc(F)cc1)SCc1cccc(Br)c1
EC50 [7]: 11.2 µM (active) | EC50 [8]: 13.5 µM (active) | EC50 [9]: 22.5 µM (active) | EC50 [10]: 11.8 µM (inconclusive) | AC50 [11]: 3.08 µM (active) | EC50 [12]: 22.2 µM (active) | EC50 [13]: 21.7 µM (active) | IC50 [14]: 11.3 µM (inactive) | EC50 [15]: 2.38 µM (active) | AC50 [16]: 2.92 µM (active) | EC50 [17]: 0.272 µM (active)

C[C@@H]1CCCCO[C@@H](CN(C)S(=O)(=O)c2ccccc2)[C@@H](C)CN([C@H](C)CO)C(=O)c2cc(NS(=O)(=O)c3ccc(F)cc3)ccc2O1
IC50 [18]: 1.9 µM (active)

Cc1cc(C)c(NS(=O)(=O)c2ccc3c(c2)NC(=O)CCS3)c(C)c1
EC50 [19]: > 350 µM (not active) | AC50 [6]: 23.1 µM (active) | EC50 [20]: 58.1 µM (active)

CCOC(=O)CCCCC(=O)c1[nH]c(=O)[nH]c1CSc1nc(C)cc(C)n1
IC50 [18]: 2.39 µM (active)

O=P1(NCCCl)OCCCN1CCCl (stereo unspecified) [IFOSFAMIDE]
GI50 [21]: 371 µM (inactive) | GI50 [22]: 232 µM (inactive) | GI50 [23]: 215 µM (inactive)

Cc1nc(C(C)(C)O)n(-c2ccccc2)n1
IC50 [24]: > 64 µM (inactive)

CN(C)S(=O)(=O)c1ccc(C(=O)NCC(=O)N/N=C/c2ccccc2)cc1
IC50 [1]: > 29.9 µM (inactive) | EC50 [2]: > 29.9 µM (inactive)

CC1C(=O)C(C)C(c2ccccc2)N(N=O)C1c1ccccc1 (stereo unspecified)
GI50 [21]: 42.8 µM (inactive) | GI50 [22]: > 100 µM (inactive) | GI50 [23]: > 100 µM (inactive)
